From patent US20230263746A1, “Synergistic Polyamine Combinations And Methods Therefor” (Compound Solutions Inc., priority 2022, published 2023)
Entries after “also recorded” stand apart in the source; their conditions may differ.

How the values were obtained:
wildtype C. elegans [1] = assay: Lifespan in a C. elegans model; type: in vivo; settings: for effect on lifespan compared to control: 100 μM resveratrol, 500 μM NMN, 20 μg/mL spermidine, 6 μg/mL spermine, or 20 μg/mL spermidine with 6 μg/mL spermine, scored daily until all animals dead; for fraction of live organisms at the same date compared to control: at and after day 12 (latter third in life), FIG. 4
Excerpt: One physiological marker found to be beneficially and synergistically modulated by the compositions presented herein is lifespan. […] An additional control group was given no treatment. All groups were loaded into chips at the L4-stage. From the 1st day of adulthood, the animals were switched to heat-killed OP50 plus the appropriate compound. Chips were scored daily until all animals were dead.

wildtype C. elegans [2] = assay: Locomotor activity (healthspan) scoring in C. elegans with respect to age; type: in vivo
Excerpt: FIG. 7 depicts a method of scoring locomotor activity in C. elegans wherein the animal's displacement from a fixed boundary determines an activity score. […] Using C. elegans as test subjects, this measurement can be accomplished by assigning each animal a digitally fixed boundary and observing each animal's displacement from that boundary. […] An additional control group was given no treatment. All groups were loaded into chips at the L4-stage. From the 1st day of adulthood, the animals were switched to heat-killed OP50 plus the appropriate compound. The displacement of each animal from its assigned fixed boundary determined an activity score.

[3] = days 10 and 12 of animal life, 100 μM resveratrol, 500 μM NMN

| SMILES | effect on lifespan compared to control (wildtype C. elegans [1]) | fraction of live organisms at the same date compared to control (wildtype C. elegans [1]) | locomotor activity compared to untreated/wildtype (wildtype C. elegans [2]; day 8 of animal life, 6 μg/mL spermine) | locomotor activity compared to untreated/wildtype (wildtype C. elegans [2]; later ages (after day 8), 6 μg/mL spermine) | locomotor activity compared to untreated/wildtype (wildtype C. elegans [2]; [3]) | locomotor activity compared to untreated/wildtype (wildtype C. elegans [2]; with respect to age (all ages scored), 20 μg/mL spermidine) |
| --- | --- | --- | --- | --- | --- | --- |
| NCCCNCCCCNCCCN [spermine] | significant effects on lifespan | increased over control | significantly more activity; also recorded: significant differences in activity levels compared to the untreated group | does not seem to persist significantly into later ages; also recorded: did not persist into later ages | – | – |
| Oc1ccc(C=Cc2cc(O)cc(O)c2)cc1 [resveratrol, reference compound] | strongest increase to lifespan compared to control | – | – | – | remain more active than the wildtype C. elegans; also recorded: significantly higher levels of activity than untreated groups | – |
| NC(=O)c1ccc[n+]([C@@H]2O[C@H](COP(=O)([O-])O)[C@@H](O)[C@H]2O)c1 [NMN, nicotinamide mononucleotide, reference compound] | strongest increase to lifespan compared to control | – | – | – | significantly higher levels of activity than the wildtype C. elegans; also recorded: significantly higher levels of activity than untreated groups | – |
| NCCCCNCCCN [spermidine] | weakest effect on lifespan, yet still significant; also recorded: slight lifespan extension compared to the untreated group | increased over control | – | – | – | do not show statistically significant difference in activity levels compared to wildtype C. elegans; also recorded: did not show any significant difference in activity levels compared to the untreated group |
